Laboratory results reported in PMC5940828, “Analysis of β-tubulin-carbendazim interaction reveals that binding site for MBC fungicides does not include residues involved in fungicide resistance” (Scientific Reports, 2018).

Biological target: T1, P. xanthii β-tubulin (TUB2), MBC-sensitive (E198) (Podosphaera fusca, UniProt M4QC09)
T1 construct: β-tubulin alone without α-tubulin; E198 allele
Assay: intrinsic tryptophan fluorescence quenching, modified Stern-Volmer
Type: binding
Settings: double-log; n = 1.41; excitation 295 nm; carbendazim dosed as commercial 50% water-dispersible formulation (Maypon Flow)
Description: intrinsic tryptophan fluorescence quenching, modified Stern-Volmer on P. xanthii β-tubulin (TUB2), MBC-sensitive (E198)

T1 sequence (M4QC09 1-447): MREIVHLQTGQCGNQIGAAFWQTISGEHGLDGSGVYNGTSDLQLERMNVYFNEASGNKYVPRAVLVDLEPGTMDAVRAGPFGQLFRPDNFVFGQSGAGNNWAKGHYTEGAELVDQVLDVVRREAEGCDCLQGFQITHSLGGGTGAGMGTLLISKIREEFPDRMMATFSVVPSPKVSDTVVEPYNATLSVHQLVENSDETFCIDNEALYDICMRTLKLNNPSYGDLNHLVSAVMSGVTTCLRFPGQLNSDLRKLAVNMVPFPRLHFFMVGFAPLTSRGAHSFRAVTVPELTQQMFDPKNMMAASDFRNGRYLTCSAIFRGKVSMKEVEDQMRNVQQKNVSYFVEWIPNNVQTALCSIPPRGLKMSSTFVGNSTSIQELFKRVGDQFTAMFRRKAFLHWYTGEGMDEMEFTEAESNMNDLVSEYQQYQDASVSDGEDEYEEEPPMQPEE

COC(=O)Nc1nc2ccccc2[nH]1 [carbendazim, methyl-2-benzimidazole carbamate]
K^b: 1380 M⁻¹
